{"source": "paper PMC10049699", "about": "“Identification and Empiric Evaluation of New Inhibitors of the Multidrug Transporter P-Glycoprotein (ABCB1)” (International Journal of Molecular Sciences, 2023)", "type_in_all_cases": "cell-based", "key": {"ABCB1 [1]": {"biological_target": "T1, ABCB1 (Homo sapiens, UniProt P08183)", "T1 construct": "expressed in transfected cells", "T1 sequence (P08183 whole entry)": "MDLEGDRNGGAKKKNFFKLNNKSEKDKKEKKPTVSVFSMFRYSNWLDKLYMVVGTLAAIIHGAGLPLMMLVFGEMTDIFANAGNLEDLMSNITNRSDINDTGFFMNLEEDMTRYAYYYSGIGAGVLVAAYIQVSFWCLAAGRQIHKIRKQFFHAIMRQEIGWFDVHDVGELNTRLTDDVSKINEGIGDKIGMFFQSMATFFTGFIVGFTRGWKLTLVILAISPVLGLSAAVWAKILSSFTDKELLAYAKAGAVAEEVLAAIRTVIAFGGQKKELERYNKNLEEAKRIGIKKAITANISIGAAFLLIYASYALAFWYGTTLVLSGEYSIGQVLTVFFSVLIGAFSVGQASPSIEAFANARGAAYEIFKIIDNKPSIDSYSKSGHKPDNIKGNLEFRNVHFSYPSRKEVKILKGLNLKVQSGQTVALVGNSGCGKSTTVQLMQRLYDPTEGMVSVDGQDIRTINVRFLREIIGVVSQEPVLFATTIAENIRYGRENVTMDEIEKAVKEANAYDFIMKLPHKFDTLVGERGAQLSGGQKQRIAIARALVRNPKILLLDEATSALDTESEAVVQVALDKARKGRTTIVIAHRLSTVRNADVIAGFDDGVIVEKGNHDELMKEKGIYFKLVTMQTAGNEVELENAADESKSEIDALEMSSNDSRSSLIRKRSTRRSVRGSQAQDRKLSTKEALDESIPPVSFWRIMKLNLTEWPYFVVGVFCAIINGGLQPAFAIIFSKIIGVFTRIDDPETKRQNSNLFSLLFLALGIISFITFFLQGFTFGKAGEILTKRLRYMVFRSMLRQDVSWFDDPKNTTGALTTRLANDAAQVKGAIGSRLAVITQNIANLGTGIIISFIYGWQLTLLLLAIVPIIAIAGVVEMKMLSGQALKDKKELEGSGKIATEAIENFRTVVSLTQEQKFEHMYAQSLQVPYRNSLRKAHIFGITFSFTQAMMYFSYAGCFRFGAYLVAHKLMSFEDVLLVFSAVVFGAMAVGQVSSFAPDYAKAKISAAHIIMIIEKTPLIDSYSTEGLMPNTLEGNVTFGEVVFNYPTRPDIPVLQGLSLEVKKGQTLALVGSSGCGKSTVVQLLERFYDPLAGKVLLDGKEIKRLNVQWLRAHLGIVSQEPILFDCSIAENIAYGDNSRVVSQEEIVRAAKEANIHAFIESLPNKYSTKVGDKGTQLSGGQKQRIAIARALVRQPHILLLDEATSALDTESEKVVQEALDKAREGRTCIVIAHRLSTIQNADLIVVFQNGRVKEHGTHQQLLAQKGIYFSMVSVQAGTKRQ", "assay": "calcein-AM drug transport (accumulation) assay in live Flp-In-ABCB1 cells, flow cytometry", "conditions": "for pIC50: Flp-In-ABCB1 cells, 30 min, n = 3 biological repeats, read-out: IC50 for inhibition of ABCB1 transport activity; for mean bottom plateau value of ABCB1 activity curve (efficacy): ratio of calcein content of ABCB1 non-expressing cells to whole population, full inhibition at 1.0; for effect on ABCB1: preliminary data, up to a concentration of 100 nM", "method": "We have previously integrated a single copy of pcDNA5/FRT-ABCB1-12His into the genome of Flp-In 293 cells to generate the Flp-In-ABCB1 cell line. To prevent possible drug–drug interactions during the transport assay, the Flp-In-ABCB1 cells were cultured in the absence of hygromycin, which is normally used to select for the continued expression of the hygromycin resistance gene carried on the pcDNA5/FRT plasmid. […] We also used the non-toxic cell-permeant dye calcein-AM as a transport substrate of ABCB1 [35, 36].\nThe concentration of calcein-AM was titrated until the ABCB1-positive cells began to accumulate calcein. […] This concentration was used in all further live cell transport assays. To test whether the assay could be applied to drug inhibition studies, we incubated the Flp-In-ABCB1 cells with calcein-AM in the presence of the third-generation inhibitor tariquidar.\nThese are the cells that no longer express ABCB1 (population […] in Figure 2B) due either to deletion of the plasmid from the genome or, perhaps more likely, silencing of the locus by chromatin condensation. These cells survive in the absence of hygromycin selection, but they are useful as they provide an internal negative control that can be easily identified in the single channel histogram at the lowest level of inhibitor. Transport activity of the ABCB1 was, thus, calculated using the fold difference in median drug accumulation by this ABCB1 non-expressing population G4 at the lowest concentration of inhibitor versus the median drug accumulation across all cells (population G5), as described in Equation (1). (1) Median drug accumulation in ABCB1 non−expressing cells G4/Median drug accumulation in the whole population G5\n(§1) Flp-In-293 and Flp-In-ABCB1-12His cells were grown as monolayers in Dulbecco’s modified Eagle medium (DMEM; ThermoFisher Sci, Waltham, MA, USA) supplemented with 10% foetal bovine serum (FBS; ThermoFisher Sci, Waltham, MA, USA). The cell lines were incubated in a humidified incubator at a temperature of 37 °C in an atmosphere of 5% CO2. For the drug transport assay, cells (3 × 10^5 per well) were seeded in a 24-well, flat-bottomed plate (Sarstedt AG and Co., Nümbrecht, Germany) in 500 μL growth medium and incubated for 24 h, as above. The medium was aspirated, and the cells were washed with the transport buffer (phenol-red free DMEM, with 1% FBS). Next, the cells were incubated with calcein-AM (Invitrogen, Waltham, MA, USA) at 250 nM or OG-taxol (Invitrogen, Waltham, MA, USA) at 0.4 μM in 200 μL transport buffer for 30 min at 37 °C in the presence or absence of inhibitor (Tariquidar was purchased from MedChemExpress (Monmouth Junction, NJ, USA) and the test inhibitors were from Chembridge Corporation (San Diego, CA, USA); Table 2). All test compounds, tariquidar, and calcein-AM were solubilized in DMSO and further diluted in transport buffer for the transport assay. The concentration of DMSO in the final solution never exceeded 1.1%, at which concentration it has no apparent effect on the cells or the function of ABCB1. The medium was then aspirated, and cells were washed with ice-cold transport buffer and harvested with 25 μL trypsin (TrypLE express enzyme; ThermoFisher Sci, Waltham, MA, USA). The cells were recovered in a flow cytometry tube in 300 μL ice-cold transport buffer for flow cytometry using a BD LSR II flow cytometer (Becton Dickinson, Franklin Lakes, NJ, USA).\nIn order to correlate ABCB1 expression with calcein-AM efflux activity, a slightly different order was used, as described previously. Briefly, the cells were first detached from the well and incubated with saturating levels of primary antibody 4E3 (0.5 μg, Abcam, Cambridge, UK) in 100 μL transport buffer on ice for 30 min. […]"}, "ABCB1 [2]": {"biological_target": "T1, ABCB1", "assay": "OG-taxol efflux inhibition assay in Flp-In-ABCB1 cells, flow cytometry", "conditions": "100 nM test compound, OG-taxol 0.4 μM", "text": "(§2) The four compounds are potent inhibitors of calcein-AM transport, but can they inhibit the efflux of chemotherapeutic drugs. To address this question, we first substituted a fluorescent derivative of the anticancer drug taxol for calcein-AM in a transport assay. […] We next tested whether the drugs would sensitise the Flp-In-ABCB1 cells to the clinically relevant form of taxol. The Flp-In-ABCB1 cells and their parental Flp-In cells were challenged over a three-day period with a range of concentrations of taxol in the presence and absence of test compounds at 100 nM concentration.\nas §1"}, "Flp-In-ABCB1 cells": {"tested_on": "Flp-In-ABCB1 cells", "assay": "Taxol challenge assay (resensitisation to taxol)", "conditions": "test compound at 100 nM, three-day period", "text": "as §2\n(§3) Flp-In-293 and Flp-In-ABCB1-12His cells (1 × 10^4) were seeded into a 96-well dish in 100 μL of medium, as above. Taxol (Cambridge Bioscience, Cambridge, UK) was added to a final concentration ranging from 0 nM to 10 μM in the presence or absence of inhibitors at 100 nM. The cells were cultured for a further 72 h, after which the medium was aspirated, and the cells were detached with 30 μL TrypLE Express (ThermoFisher Sci, Waltham, MA, USA) before quenching with 75 μL transport buffer and transfer to flow cytometry tubes. Cells of normal size and granularity, gated on the zero-drug condition and then applied to all samples, were counted in an ACEA NovoCyte flow cytometer (Agilent Technologies, Santa Clara, CA, USA). Cell number data were analysed in Graphpad PRISM (MacOS Version 9.4.1; GraphPad Software, San Diego, CA, USA). Curve fitting and statistical analysis was performed as above."}, "Flp-In parental cells": {"tested_on": "Flp-In parental cells", "assay": "Taxol challenge assay, parental cells / growth with inhibitor alone", "conditions": "for effect on the growth of the Flp-In parental cells: test compound at 100 nM; for cytotoxicity of test compound: 100 nM, three-day (72 h) period, cell line not specified", "text": "as §2, §3"}, "[3]": {"assay": "Taxol challenge assay (resensitisation to taxol)", "conditions": "human; Flp-In-ABCB1 (ABCB1 wt) cells, three-day culture, n = 3; read-out: IC50 for taxol (cell number) in the absence of inhibitor", "text": "as §2, §3"}, "[4]": {"conditions": "ratio of IC50 values, calcein-AM assay"}}, "note": "pIC50: −log10 of the molar value. Entries after “also recorded” stand apart in the source; their conditions may differ.", "data": [{"molecule": "O=C1CCC(CCNCc2ccccc2)N1Cc1ccc(-n2cccn2)cc1", "note": "(stereo not drawn) [A, 5-[2-(benzylamino)ethyl]-1-[4-(1H-pyrazol-1-yl)benzyl]-2-pyrrolidinone]", "values": [{"measurement": "pIC50", "setting": "ABCB1 [1]; 250 nM calcein-AM", "value": 8.85}, {"measurement": "fold less potent than tariquidar", "setting": "ABCB1 [1]; [4]", "value": 12, "unit": "fold"}, {"measurement": "mean bottom plateau value of ABCB1 activity curve (efficacy)", "setting": "ABCB1 [1]", "value": 1.0}, {"measurement": "inhibition of OG-taxol efflux by ABCB1", "setting": "ABCB1 [2]", "value": "inhibition of OG-taxol efflux"}, {"measurement": "resensitisation of Flp-In-ABCB1 cells to taxol", "setting": "Flp-In-ABCB1 cells", "value": "resensitised"}, {"measurement": "effect on the growth of the Flp-In parental cells", "setting": "Flp-In parental cells; three-day culture", "value": "no effect; also recorded: do not inhibit cell growth"}]}, {"molecule": "Cc1ccc(CNC(=O)C2CCN(c3cc(C4CC(N)C4)nc(C)n3)CC2)cc1.Cl.Cl", "note": "(stereo not drawn) [B, 1-[6-(3-aminocyclobutyl)-2-methylpyrimidin-4-yl]-N-(4-methylbenzyl)piperidine-4-carboxamide dihydrochloride]", "values": [{"measurement": "effect on ABCB1", "setting": "ABCB1 [1]; 250 nM calcein-AM", "value": "no effect"}]}, {"molecule": "Cc1nnc(NS(=O)(=O)c2ccc3c(c2)CN(C(=O)[C@H](N)C(C)C)CC3)s1", "note": "[C, N-(5-methyl-1,3,4-thiadiazol-2-yl)-2-D-valyl-1,2,3,4-tetrahydroisoquinoline-7-sulfonamide]", "values": [{"measurement": "effect on ABCB1", "setting": "ABCB1 [1]; 250 nM calcein-AM", "value": "no effect"}]}, {"molecule": "Cc1cccc(N2CCN(CC(=O)Nc3nnc(CCN(C)C)s3)CC2)c1", "note": "[D, N-{5-[2-(dimethylamino)ethyl]-1,3,4-thiadiazol-2-yl}-2-[4-(3-methylphenyl)piperazin-1-yl]acetamide]", "values": [{"measurement": "pIC50", "setting": "ABCB1 [1]; 250 nM calcein-AM", "value": 7.63}, {"measurement": "fold less potent than tariquidar", "setting": "ABCB1 [1]; [4]", "value": 200, "unit": "fold"}, {"measurement": "fold less potent than test compound 'A'", "setting": "ABCB1 [1]; [4]", "value": 17, "unit": "fold"}, {"measurement": "mean bottom plateau value of ABCB1 activity curve (efficacy)", "setting": "ABCB1 [1]", "value": 0.58}, {"measurement": "inhibition of OG-taxol efflux by ABCB1", "setting": "ABCB1 [2]", "value": "inhibition of OG-taxol efflux"}, {"measurement": "resensitisation of Flp-In-ABCB1 cells to taxol", "setting": "Flp-In-ABCB1 cells", "value": "resensitised"}, {"measurement": "effect on the growth of the Flp-In parental cells", "setting": "Flp-In parental cells; three-day culture", "value": "no effect; also recorded: do not inhibit cell growth"}]}, {"molecule": "Cc1ccc(N2CCN(c3cc(C4CC(N)C4)nc(N)n3)CC2)cc1C", "note": "(stereo not drawn) [E, 4-(3-aminocyclobutyl)-6-[4-(3,4-dimethylphenyl)piperazin-1-yl]pyrimidin-2-amine]", "values": [{"measurement": "pIC50", "setting": "ABCB1 [1]; 250 nM calcein-AM", "value": 7.84}, {"measurement": "fold less potent than tariquidar", "setting": "ABCB1 [1]; [4]", "value": 128, "unit": "fold"}, {"measurement": "mean bottom plateau value of ABCB1 activity curve (efficacy)", "setting": "ABCB1 [1]", "value": 0.93}, {"measurement": "inhibition of OG-taxol efflux by ABCB1", "setting": "ABCB1 [2]", "value": "inhibition of OG-taxol efflux"}, {"measurement": "cytotoxicity of test compound", "setting": "Flp-In parental cells", "value": "did kill cells; also recorded: cytotoxic"}]}, {"molecule": "Cc1cccc(N2CCN(c3cc(C4CC(N)C4)nc(C4CC4)n3)CC2)c1C.Cl.Cl", "note": "(stereo not drawn) [F, (3-{2-cyclopropyl-6-[4-(2,3-dimethylphenyl)-1-piperazinyl]-4-pyrimidinyl}cyclobutyl)amine dihydrochloride]", "values": [{"measurement": "pIC50", "setting": "ABCB1 [1]; 250 nM calcein-AM", "value": 8.32}, {"measurement": "fold less potent than tariquidar", "setting": "ABCB1 [1]; [4]", "value": 42, "unit": "fold"}, {"measurement": "mean bottom plateau value of ABCB1 activity curve (efficacy)", "setting": "ABCB1 [1]", "value": 0.36}, {"measurement": "inhibition of OG-taxol efflux by ABCB1", "setting": "ABCB1 [2]", "value": "inhibition of OG-taxol efflux"}, {"measurement": "cytotoxicity of test compound", "setting": "Flp-In parental cells", "value": "did kill cells; also recorded: cytotoxic"}]}, {"molecule": "COc1cc2c(cc1OC)CN(CCc1ccc(NC(=O)c3cc(OC)c(OC)cc3NC(=O)c3cnc4ccccc4c3)cc1)CC2", "note": "[Tariquidar, N-[2-[[4-[2-(6,7-dimethoxy-3,4-dihydro-1H-isoquinolin-2-yl)ethyl]phenyl]carbamoyl]-4,5-dimethoxyphenyl]quinoline-3-carboxamide, reference compound]", "values": [{"measurement": "inhibition of ABCB1 (calcein accumulation to level of parental Flp-In cells)", "setting": "ABCB1 [1]; 1 nM tariquidar, 250 nM calcein-AM", "value": "fully inhibited"}, {"measurement": "pIC50", "setting": "ABCB1 [1]; 250 nM calcein-AM", "value": 9.94}, {"measurement": "mean bottom plateau value of ABCB1 activity curve (efficacy)", "setting": "ABCB1 [1]", "value": 0.78}]}, {"molecule": "CC(=O)O[C@H]1C(=O)[C@@]2(C)[C@H]([C@H](OC(=O)c3ccccc3)[C@]3(O)C[C@H](OC(=O)[C@H](O)[C@@H](NC(=O)c4ccccc4)c4ccccc4)C(C)=C1C3(C)C)[C@]1(OC(C)=O)CO[C@@H]1C[C@@H]2O", "note": "[taxol, reference compound]", "values": [{"measurement": "IC50 at 72 h", "setting": "[3]", "value": 125, "unit": "nM"}, {"measurement": "pIC50", "setting": "Flp-In parental cells; 72 h, Flp-In parental cells, three-day culture, n = 3, read-out: IC50 for taxol (cell number) in the absence of inhibitor", "value": 8.30}]}]}
